# Measured values as given in patent US5116995A, “Carbazole compounds” (Taisho Pharmaceutical Co., Ltd., priority 1990, dated 1992).
# Where two headings read alike, the source gives them in different places.
# Columns and labels:
# [1] = target: sigma receptor (Rattus norvegicus, UniProt Q9R0C9); assay: biochemical
# [2] = test system: methamphetamine induced hyperlocomotion; assay: inhibition of Methamphetamine induced Hyperlocomotion; format: in vivo, mouse (male ICR); details: mice, test drug 50 mg/kg i.p., 35 min before methamphetamine 1 mg/kg i.p.; measured for 30 min from 15 min later; **P < 0.01 (Dunnett's test)
# Protocol: Thirty male ICR mice weighing 20 to 35 g were used for each group (5 animals per test, and 6 tests). Mice were placed in the measuring cages, adapted for 60 minutes, and given intraperitoneally the test drugs in Table 1 suspended in 5% gum arabic solution in a dose of 50 mg/kg (0.1 ml/10 g of the body weight). Thirty-five minutes later, methamphetamine dissolved in physiological saline solution was given intraperitoneally in a dose of 1 mg/kg. Fifteen minutes later, the locomotor content was measured for 30 minutes using an Animex apparatus. Control group was given 5% gum arabic only in a similar manner, and […] for measurement. Results are expressed as percentage to control group in Table 2.
# [3] = test system: sigma receptor; details: cited from earlier work
# [4] = target: phencyclidine receptor; details: rimcazole value from literature (vol. 155, page 345 (1988)); cited from earlier work
# [5] = target: D2 receptor; details: rimcazole value from literature (vol. 155, page 345 (1988)), [3H]spiporone binding; cited from earlier work
# [6] = target: phencyclidine receptor; assay: Receptor Binding Test: [3H]phencyclidine binding, rat whole brain membranes; design: species or system rat (male Wistar); details: rat whole brain membrane, 5 mM Tris-HCl pH 7.7, 25° C., 2 hours
# Excerpt: 32, page 820 (1987), respectively.
# [7] = target: D2 receptor (Rattus norvegicus, UniProt P61169); assay: Receptor Binding Test: (-)-[3H]sulpiride binding, rat striatal membranes
# Sequence of D2 receptor (Rattus norvegicus, UniProt P61169) (P61169 whole entry): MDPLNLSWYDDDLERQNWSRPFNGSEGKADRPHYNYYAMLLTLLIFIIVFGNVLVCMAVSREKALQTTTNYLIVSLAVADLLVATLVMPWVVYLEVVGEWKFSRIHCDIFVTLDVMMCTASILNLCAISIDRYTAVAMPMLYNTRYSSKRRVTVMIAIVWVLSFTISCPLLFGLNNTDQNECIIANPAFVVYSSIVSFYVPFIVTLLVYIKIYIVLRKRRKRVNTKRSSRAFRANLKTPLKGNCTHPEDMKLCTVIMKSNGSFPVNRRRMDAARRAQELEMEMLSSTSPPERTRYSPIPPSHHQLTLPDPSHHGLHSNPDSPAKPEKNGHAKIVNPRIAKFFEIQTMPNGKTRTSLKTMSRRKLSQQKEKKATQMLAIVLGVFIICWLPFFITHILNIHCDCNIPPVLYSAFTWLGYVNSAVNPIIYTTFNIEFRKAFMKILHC
# Sequence of sigma receptor (Rattus norvegicus, UniProt Q9R0C9) (Q9R0C9 whole entry): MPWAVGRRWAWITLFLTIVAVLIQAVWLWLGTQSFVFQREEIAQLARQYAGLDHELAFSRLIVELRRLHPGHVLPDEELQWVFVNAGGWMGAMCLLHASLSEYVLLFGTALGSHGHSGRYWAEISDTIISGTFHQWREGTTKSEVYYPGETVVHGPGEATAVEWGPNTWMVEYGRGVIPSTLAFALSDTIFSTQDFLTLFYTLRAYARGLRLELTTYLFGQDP
IC50 [1],IC50 [6],IC50 [7],Structure (SMILES),"locomotor count, % to control group [2]",affinity and specificity for sigma receptor ([3]; prior art statement),"IC50 ([3]; rimcazole value from literature (vol. 155, page 345 (1988)))",IC50 [4],IC50 [5]
0.0243 ± 0.0029 µM,,,"CCCN1CCCC(c2cccc(O)c2)C1 (single isomer, unassigned) [3-PPP, 3-(3-hydroxy-phenyl)-N-n-propylpiperidine, reference compound]",,,,,
,,,C[C@@H]1CN(CCCn2c3ccccc3c3ccccc32)C[C@H](C)N1 [Rimcazole],51.4%,not sufficient,1.46 ± 0.235 µM,> 2000 µM,86 µM
0.891 ± 0.0128 µM,> 10 µM,44.3 µM,"CCCN(CCC)Cc1cccc2[nH]c3ccccc3c12.Cl [Test drug A, 4-(di-n-propylaminomethyl)carbazole hydrochloride]",39.7%,,,,
1.02 ± 0.131 µM,> 10 µM,23.2 µM,"CCCN(CCC)Cc1cccc2[nH]c3c(C)ccc(C)c3c12.Cl [Test drug B, 5,8-dimethyl-4-(di-n-propylaminomethyl)carbazole hydrochloride]",46.6%,,,,
0.0048 ± 0.001 µM,> 10 µM,14.3 µM,"CCCN(CCC)CCc1cccc2[nH]c3c(C)ccc(C)c3c12.Cl [Test drug C, 5,8-dimethyl-4-(2-di-n-propylaminoethyl)carbazole hydrochloride]",35.3%,,,,
